Reference: patent publication EP3958980B1, “TARGETED NOVEL TRIAZOLOTHIADIAZINE DERIVATIVES FOR THE TREATMENT OF LUNG CANCER” (Anadolu Universitesi, priority 2020, dated 2021)
In brackets after ≈: the same amount, converted by molar mass. Several values for one entry are separate records, joined by “and”; a condition that tells them apart may be missing. Equal values may be shown once.

Legend:
[1] = tested on: kidney cancer (OU-31) cell line; set-up: concentration or dose not given beside the values; conditions: cited from earlier work
A549 cells = conditions: cited from earlier work
[2] = tested on: human colon epithelial (HT-29) cells; conditions: cited from earlier work
[3] = tested on: kidney fibroblast (BHK-21) cells; conditions: cited from earlier work
[4] = tested on: hepatocellular carcinoma (Hep3 B), human breast adenocarcinoma (MCF-7), human cervical carcinoma (HeLa); conditions: against all tested cancer cells; cited from earlier work
lung cancer (H157) cells = conditions: cited from earlier work
[5] = tested on: A549 human lung adenocarcinoma cells; assay: MTT assay, in vitro cytotoxic activity on A549; format: cell-based; conditions: Homo sapiens, A549, 24 hour incubation, read-out: IC50 values (µg/mL) A549 cell line
Method: (§1) The in vitro cytotoxic effects of the compounds were determined with the MTT assay. For this purpose, MTT test was performed using A549 and CCD-19Lu cell lines. After the cell lines used in the invention were centrifuged following taking them out from liquid nitrogen (-196 °C), the cells were cultured in a CO2 incubator comprising 5% CO2 at 37 °C in flasks containing 10% fetal bovine serum (FBS), where CCD-19Lu cells were cultured with Dulbecco's Modified Eagle's Medium (DMEM) and A549 cells were cultured with Roswell Park Memorial Institute (RPMI). The cells that reach the sufficient number for the assay, were seeded to 96 well plates such that 2×10^3 cells were placed in each well and at the same time, components at concentrations of 1-500 µg/mL were added to cells and they were incubated at 37 °C. At the end of the 24 hour incubation period, the MTT powder (5 mg/mL in 1 × phosphate buffered saline (PBS)) was added to each well (20 µL). After a 2-4 h period under the same conditions, the medium was removed from the plate and 100 µL of DMSO was added to each well to dissolve the dye and kept for 10 minutes. Then the plates were read at a wavelength of 540 nm using ELx808-IU Bio-Tek plate reader. The control cell viability which was not treated with the components was accepted to be 100% and the viability rates of the cells were expressed as %. […] According to the results obtained, the dose range was extended until the IC50 value was determined. MTT assay is a frequently used method which measures the cytotoxic effects of the compounds on the cells by converting the yellow colored MTT stain into purple colored formazan crystals via the mitochondrial succinate dehydrogenase activity. In the cytotoxic activity tests of the compounds, A549 lung adenocarcinoma and CCDLu19 normal lung fibroblast cell lines were used.

[6] = tested on: CCD-19Lu normal lung fibroblast cells; assay: MTT assay, in vitro cytotoxic activity on CCD-19Lu; format: cell-based; conditions: 24 hour incubation; for IC50: Homo sapiens, CCD 19Lu, read-out: IC50 values (µg/mL) CCDLul9 cell line
Method: as §1, with “determined.” for “determined. MTT assay is a frequently used method which measures the cytotoxic effects of the compounds on the cells by converting the yellow colored MTT stain into purple colored formazan crystals via the mitochondrial succinate dehydrogenase activity. In the cytotoxic activity tests of the compounds, A549 lung adenocarcinoma and CCDLu19 normal lung fibroblast cell lines were used.”
MTT assay is a frequently used method which measures the cytotoxic effects of the compounds on the cells by converting the yellow colored MTT stain into purple colored formazan crystals via the mitochondrial succinate dehydrogenase activity. In the cytotoxic activity tests of the compounds, A549 lung adenocarcinoma and CCDLu19 normal lung fibroblast cell lines were used.

Akt = Akt colorimetric in cell ELISA in A549 cells; format: cell-based, human; conditions: 24 hours
Method: After 10.000 cells were seeded in the wells, they were kept in the incubator for 24 hours. […] Briefly, the medium was removed from the wells and 100 µL of 4% formaldehyde was added. The plate was incubated in a fume hood for 15 minutes. Formaldehyde was removed and the plate was washed twice with 1X […] (TBS) such as to be 100 µL/well. 1X TBS was removed and 100 µL 1X permeabilization solution was added to each well and it was kept at room temperature for 15 minutes. After the 1X permeabilization solution was removed, the wells were washed with 100 µL 1X TBS once. 1X TBS was removed and 100 µL quenching solution was added to each well and it was kept at room temperature for 20 minutes. Afterwards, this solution was removed. The plate was washed 1 time with 1X TBS and 100 µL blocking solution was added to the wells and it was kept at room temperature for 30 minutes. At the end of this period, the blocking solution was removed and 50 µL primary antibody was added to the wells. The plate was sealed with a cover and it was incubated overnight at 4 °C. The primary antibody was removed and the plate wells were washed 3 times with 100 µL 1X washing solution. After the washing solution was removed, 100 µL diluted horseradish peroxidase (HRP) conjugate was added and it was incubated at room temperature for 30 minutes. Later on this conjugate was removed and 100 µL 3,3',5,5'-tetramethylbenzidine (TMB) […] was added to each well and the absorbance values were read at 450 nm for 30 minutes. The experiment was carried out in triplicate. The values of the blank wells were subtracted from the values of the untreated control and treated cells. The Akt activity% was determined as the relative absorbance of treated versus untreated control cells.

## O=C(CSc1nnc2n1N=C(c1ccc(Br)cc1)CS2)c1ccc(Br)cc1 [1-(4-bromophenyl)-2-((6-(4-bromophenyl)-7H-[1,2,4]triazolo[3,4-b][1,3,4]thiadiazine-3-yl)thio)ethanone]
[1]
  growth: 46.76%
  inhibition: 53.24%
A549 cells
  growth: 58.58%
  inhibition: 41.42%

## O=C(CSc1nnc2n1N=C(c1ccc(F)cc1)CS2)c1ccc(F)cc1 [1-(4-fluorophenyl)-2-((6-(4-fluorophenyl)-7H-[1,2,4]triazolo[3,4-b][1,3,4]thiadiazine-3-yl)thio)ethanone]
[1]
  growth: 47.42%
  inhibition: 52.58%

## CS(=O)(=O)c1ccc(Cc2nnc3n2N=C(c2ccccc2)CS3)cc1 [3-(4-(methylsulfonyl)benzyl)-6-phenyl-7H-[1,2,4]triazolo[3,4-b][1,3,4]thiadiazine]
[2]
  IC50: 25 µM

## Cc1ccc(C2=Nn3c(nnc3-c3ccncc3)SC2)cc1 [3-(pyridine-4-yl)-6-(p-tolyl)-7H-[1,2,4]triazolo[3,4-b][1,3,4]thiadiazine]
[3]
  inhibition: 72.6%

## CCCCC/C=C\CC[C@H](O)CCCCCCCc1nnc2n1N=C(c1ccccc1)CS2 [3-[(8R,11Z)-8-hydroxyheptadec-11-enyl]-6-phenyl-7H-1,2,4-triazolo[3,4-b]-1,3,4-thiadiazine]
[4]
  IC50: < 8.83 µM

## CCCCCC[C@@H](O)C/C=C\CCCCCCCc1nnc2n1N=C(c1ccccc1)CS2 [3-[(8Z,11R)-11-hydroxyheptadec-8-enyl]-6-phenyl-7H-1,2,4-triazolo[3,4-b]-1,3,4-thiadiazine]
[4]
  IC50: < 8.83 µM

## Clc1ccc(C2=Nn3c(nnc3-c3cccnc3)SC2)cc1Cl [6-(3,4-Dichlorophenyl)-3-(pyridine-3-yl)-7H-[1,2,4]triazolo[3,4-b][1,3,4]thiadiazine]
Lung cancer (H157) cells
  IC50: 0.96 ± 0.43 µM

## COc1cccc(C2=Nn3c(nnc3-c3ccncc3)SC2)c1 [6-(3-Methoxyphenyl)-3-(pyridine-4-yl)-7H-[1,2,4]triazolo[3,4-b][1,3,4]thiadiazine]
[3]
  inhibition: 73.3%

## CS(=O)(=O)c1ccc(Cc2nnc3n2N=C(c2ccc(-c4ccccc4)cc2)CS3)cc1 [6-(biphenyl-4-yl)-3-(4-(methylsulfonyl)benzyl)-7H-[1,2,4]triazolo[3,4-b][1,3,4]thiadiazine]
[2]
  IC50: 12.5 µM

## c1ccc(C2=Nn3c(CCc4ccc5c(c4)OCO5)nnc3SC2)cc1 [Compound 1, 3-[2-(1,3-Benzodioxole-5-yl)ethyl]-6-phenyl-7H-[1,2,4]triazolo[3,4-b][1,3,4]thiadiazine]
[5]
  IC50: 103 ± 11.5 µg/mL (≈ 284 µM)
[6]
  IC50: < 3.9 µg/mL

## O=[N+]([O-])c1ccc(C2=Nn3c(CCc4ccc5c(c4)OCO5)nnc3SC2)cc1 [Compound 2, 3-[2-(1,3-Benzodioxole-5-yl)ethyl]-6-(4-nitrophenyl)-7H-[1,2,4]triazolo[3,4-b][1,3,4]thiadiazine]
[5]
  IC50: 380 ± 70.7 µg/mL (≈ 928 µM)
[6]
  IC50: 3.93 ± 0.06 µg/mL (≈ 9.6 µM)

## N#Cc1ccc(C2=Nn3c(CCc4ccc5c(c4)OCO5)nnc3SC2)cc1 [Compound 3, 3-[2-(1,3-Benzodioxole-5-yl)ethyl]-6-(4-cyanophenyl)-7H-[1,2,4]triazolo[3,4-b] [1,3,4]thiadiazine]
[5]
  IC50: > 500 µg/mL
[6]
  IC50: > 500 µg/mL

## Fc1ccc(C2=Nn3c(CCc4ccc5c(c4)OCO5)nnc3SC2)cc1 [Compound 4, 3-[2-(1,3-Benzodioxole-5-yl)ethyl]-6-(4-fluorophenyl)-7H-[1,2,4]triazolo[3,4-b] [1,3,4]thiadiazine]
[5]
  IC50: 325 ± 35.4 µg/mL (≈ 850 µM)
[6]
  IC50: > 500 µg/mL

## Clc1ccc(C2=Nn3c(CCc4ccc5c(c4)OCO5)nnc3SC2)cc1 [Compound 5, 3-[2-(1,3-Benzodioxole-5-yl)ethyl]-6-(4-chlorophenyl)-7H-[1,2,4]triazolo[3,4-b] [1,3,4]thiadiazine]
[5]
  IC50: > 500 µg/mL
[6]
  IC50: < 3.9 µg/mL

## Brc1ccc(C2=Nn3c(CCc4ccc5c(c4)OCO5)nnc3SC2)cc1 [Compound 6, 3-[2-(1,3-Benzodioxole-5-yl)ethyl]-6-(4-bromophenyl)-7H-[1,2,4]triazolo[3,4-b] [1,3,4]thiadiazine]
[5]
  IC50: 307 ± 58.6 µg/mL (≈ 692 µM)
[6]
  IC50: < 3.9 µg/mL

## COc1ccc(C2=Nn3c(CCc4ccc5c(c4)OCO5)nnc3SC2)cc1 [Compound 7, 3-[2-(1,3-Benzodioxole-5-yl)ethyl]-6-(4-methoxyphenyl)-7H-[1,2,4]triazolo[3,4-b] [1,3,4]thiadiazine]
[5]
  IC50: 45.7 ± 5.51 µg/mL (≈ 116 µM)
[6]
  IC50: 44.3 ± 1.15 µg/mL (≈ 112 µM)

## Cc1ccc(C2=Nn3c(CCc4ccc5c(c4)OCO5)nnc3SC2)cc1 [Compound 8, 3-[2-(1,3-Benzodioxole-5-yl)ethyl]-6-(4-methylphenyl)-7H-[1,2,4] triazolo [3,4-b] [1,3,4]thiadiazine]
[5]
  IC50: > 500 µg/mL
[6]
  IC50: 14.7 ± 6.43 µg/mL (≈ 38.8 µM)

## c1ccc2cc(C3=Nn4c(CCc5ccc6c(c5)OCO6)nnc4SC3)ccc2c1 [Compound 10, 3-[2-(1,3-Benzodioxole-5-yl)ethyl]-6-(naphthalene-2-yl)-7H-[1,2,4]triazolo [3,4-b][1,3,4]thiadiazine]
[5]
  IC50: 4.1 ± 0.14 µg/mL (≈ 9.89 µM)
[6]
  IC50 values (µg/mL) CCDLul9 cell line: <3.90 µg/mL
  IC50: < 3.9 µg/mL

## Clc1cccc(C2=Nn3c(CCc4ccc5c(c4)OCO5)nnc3SC2)c1 [Compound 13, 3-[2-(1,3-Benzodioxole-5-yl)ethyl]-6-(3-chlorophenyl)-7H-[1,2,4]triazolo[3,4-b][1,3,4]thiadiazine]
[5]
  IC50: > 500 µg/mL
[6]
  IC50: > 500 µg/mL

## c1csc(-c2ccc(C3=Nn4c(CCc5ccc6c(c5)OCO6)nnc4SC3)cc2)c1 [Compound 15, 3-[2-(1,3-Benzodioxole-5-yl)ethyl] -6-(4-(thiophen-2-yl)phenyl)-7H-[1,2,4] triazolo [3,4-b] [1,3,4]thiadiazine]
[5]
  IC50: 4 ± 0.2 µg/mL (≈ 8.96 µM)
[6]
  IC50 values (µg/mL) CCDLul9 cell line: <3.90 µg/mL
  IC50: < 3.9 µg/mL

## CCn1c(-c2nonc2N)nc2c(C#CC(C)(C)O)ncc(OC[C@H]3CCCNC3)c21 [GSK690693, reference compound]
Akt; IC50/2 concentration (9: 2.88; 11: 0.37; 12: 0.40; 14: 1.32; GSK690693: 3.34; Cisplatin: 11.50 µg/mL)
  Akt Inhibition%: 60.56±3.04%
Akt; IC50/4 concentration (9: 1.44; 11: 0.18; 12: 0.20; 14: 0.66; GSK690693: 1.69; Cisplatin: 5.75 µg/mL)
  Akt Inhibition%: 59.23±9.77%
Akt; IC50 concentration (9: 5.75; 11: 0.73; 12: 0.80; 14: 2.63; GSK690693: 6.75; Cisplatin: 23.00 µg/mL)
  Akt Inhibition%: 61.67% and 61.67±1.21%
[5]
  IC50: 6.75 ± 1.06 µg/mL (≈ 15.9 µM)
